B1: GDF-7: growth and differentiation factor-7 (Sino Biological), tendon-promoting cue (protein, UniProt Q7Z4P5 322-450, looked up)
Growth/differentiation factor …: TALAGTRTAQGSGGGAGRGHGRRGRSRCSRKPLHVDFKELGWDDWIIAPLDYEAYHCEGLCDFPLRSHLEPTNHAIIQTLLNSMAPDAAPASCCVPARLSPISILYIDAANNVVYKQYEDMVVEACGCR

Assays:
C2C12 cells [1] = test: TENASCIN C and TENOMODULIN immunofluorescence, C2C12 on TCPS with FGF-2; assay type: cell-based, mouse; details: 50 or 100 ng/mL FGF-2, TCPS, 3 days
Method: (§1) Immunofluorescence staining was performed as previously described with minor modifications^18,19.
For in vitro studies not involving QHM polymers, C2C12 cells were seeded into 24 well plates at a density of 7.47×10^4 cells per cm^2 in DMEM, 10% FBS, 1% PS media. The following day (Day 0), the media were changed to DMEM, 10% FBS, 1% PS with 0, 50 or 100 ng/mL FGF-2. Media were changed every 48 h. Cells were fixed in 4% paraformaldehyde (Electron Microscopy Sciences, Hatfield, Pa.) for 15 min and TENOMODULIN or TENASCIN C staining was performed at 3 days post-seeding.
(§2) Samples were permeabilized with 0.2% Triton X-100 (Sigma Aldrich, St. Louis, Mo.), washed three times in wash buffer (PBS and 0.1% BSA) and blocked with 10% donkey serum (Jackson Immunoresearch, West Gove, Pa.) for 1 h at room temperature. […] Lastly, cells were rinsed five times with wash buffer (5 min each) and fluorescence images were acquired on an inverted Zeiss AxioObserver Z1 microscope equipped with an X-Cite® Series 120Q metal halide lamp, appropriate filters and an AxioCam MRm camera.

C2C12 cells [2] = test: SCX immunofluorescence, C2C12 tenocyte differentiation on QHM polymers; assay type: cell-based, mouse; details: fibrin-coated QHM polymers in vitro, 3 days
Method: as §1
For studies on the effect of Young's moduli on osteoblast or tenocyte differentiation (using uniform or 0 s:300 s UV mechanically-graded QHM polymer samples), C2C12 cells were seeded into 24 well plates containing uncoated QHM polymer samples (circular discs approximately 1 cm in diameter or rectangular specimens measuring approximately 0.5 cm×1 cm) at a density of 7.47×10^4 cells per cm^2 overnight in DMEM, 10% FBS and 1% PS media. […] Media were changed every 48 h. SCX staining was performed at 3 days post-seeding. RUNT-RELATED TRANSCRIPTION FACTOR-2 (RUNX-2) or OSTEOCALCIN (OCN) staining was performed at 4 days post-seeding. […]
as §2

C57BL-6J mice = test: Mouse subcutaneous implantation of growth factor-biopatterned QHM grafts; assay type: in vivo; details: 3 μg patterned on fibrin-coated QHM polymer, 14 days subcutaneous
Method: Mouse subcutaneous surgeries were performed in accordance with the guidelines established by Stanford University's Administrative Panel on Laboratory Animal Care. Wild-type C57BL-6J mice (Charles River Laboratories, Wilmington, Mass.) between 8 and 12 weeks of age (20-30 g) were used in this study. All mice were maintained in the Stanford Animal Facility, with a 12:12 h light-dark cycle and free access to standard laboratory food and water. Mice were anesthetized by inhalation with isoflurane (4% for induction, 2% for maintenance, Abbott Laboratories, Chicago) as well as administered 0.05 mg/kg Buprenorphine (Hospira Inc., Lake Forest, Ill.) and 25 mg/kg Cefazolin (Thermo Fisher Scientific, Waltham, Mass.) as an analgesic and anti-infective, respectively. Grafts (Square specimens 6×6×1 mm) were comprised of 0 s UV and 300 s UV QHM polymer regions (each measuring 3×3×1 mm) biopatterned with 1) no growth factor, 2) 3 μg FGF-2 on 0 s UV QHM polymer region and 3 μg BMP-2 on 300 s UV QHM polymer region or 3) 3 μg GDF-7 on 0 s UV QHM polymer region and 3 μg BMP-2 on 300 s UV QHM polymer region. Under sterile conditions, a 2.5 cm skin incision was made and grafts were sutured subcutaneously to the skin using 3-0 Nylon sutures (Oasis, Med-Vet International, Mettawa, Ill.) in a bilateral manner. Subsequently, the skin was re-approximated and closed with 3-0 Nylon sutures. […]

C2C12 cells [3] = test: ALP staining, C2C12 osteoblast differentiation on QHM polymers with BMP-2 in media; assay type: cell-based, mouse; details: 25 μM blebbistatin
Method: ALP activity was detected according to the manufacturer's instructions (Sigma Aldrich, St. Louis, Mo.) as previously described with minor modifications^18,19.
For studies on the effect of Young's moduli on osteoblast differentiation (using uniform QHM polymer samples), C2C12 cells were seeded into 24 well plates containing uncoated QHM polymer samples (circular discs approximately 1 cm in diameter) at a density of 7.47×10^4 cells per cm^2 overnight in DMEM, 10% FBS and 1% PS media. […] Media were changed every 48 h. ALP staining was performed at 4, 8 and 14 days.
For studies on the effect of Young's moduli on osteoblast differentiation (using 0 s:300 s UV mechanically-graded QHM polymer samples), C2C12 cells were seeded into 24 well plates containing uncoated QHM polymer samples (rectangular specimens measuring approximately 0.5 cm×1 cm) at a density of 7.47×10^4 cells per cm^2 overnight in DMEM, 10% FBS and 1% PS media. […] Media were changed every 48 h. ALP staining were performed at 3 days post-seeding.
At designated time points, cells were fixed for 1 min in 3.7% formaldehyde and samples were incubated with ALP stain for 1 h. Color images of samples were acquired using an inverted Zeiss AxioObserver Z1 microscope equipped with an AxioCam ICC color camera and a Nikon D70 Digital camera (Nikon Corp., Tokyo, Japan). Where required, the ALP-stained images were quantified by calculating the average pixel intensity in Adobe Photoshop 7.0 as previously described^18,19.

Molecule | TENASCIN C expression relative to untreated controls (C2C12 cells [1]) | TENOMODULIN expression relative to untreated controls (C2C12 cells [1]) | C2C12 SCX expression on FGF-2 patterns relative to off pattern controls (C2C12 cells [2]) | Tissue formed on growth factor pattern in vivo (C57BL-6J mice) | Effect on BMP-2-induced ALP activity on QHM polymers (C2C12 cells [3]; 4 days) | Effect on C2C12 ALP activity on TCPS (C2C12 cells [3]; 4 days) | Inhibitory effect on ALP activity (C2C12 cells [3]; 8 days) | Inhibitory effect on ALP activity (C2C12 cells [3]; 14 days)
FGF-2: fibroblast growth factor-2 (Peprotech), tendon-promoting cue | increased TENASCIN C expression | increased TENOMODULIN expression | largely increased | reminiscent of immature tendon |  |  |  | 
Cc1ccc2c(c1)C(=O)C1(O)CCN(c3ccccc3)C1=N2 (stereo not drawn) [blebbistatin] |  |  |  |  | inhibited slightly | did not inhibit | occurred only on 0 s UV QHM polymer | no longer observed
B1 |  |  |  | reminiscent of immature tendon |  |  |  | 
